According to publication PMC8617627, “Novel DYRK1A Inhibitor Rescues Learning and Memory Deficits in a Mouse Model of Down Syndrome” (Pharmaceuticals, 2021):
Where two headings read alike, the source gives them in different places.

How the values were obtained:
Experiment in all cases: Kinase profile (33P ATP filter binding)
Type in all cases: biochemical
Details in all cases: read-out: Remaining protein kinase activity
[1] = biological target: T1, BRSK1 (Homo sapiens, UniProt Q8TDC3)
T1 sequence (Q8TDC3 1-778): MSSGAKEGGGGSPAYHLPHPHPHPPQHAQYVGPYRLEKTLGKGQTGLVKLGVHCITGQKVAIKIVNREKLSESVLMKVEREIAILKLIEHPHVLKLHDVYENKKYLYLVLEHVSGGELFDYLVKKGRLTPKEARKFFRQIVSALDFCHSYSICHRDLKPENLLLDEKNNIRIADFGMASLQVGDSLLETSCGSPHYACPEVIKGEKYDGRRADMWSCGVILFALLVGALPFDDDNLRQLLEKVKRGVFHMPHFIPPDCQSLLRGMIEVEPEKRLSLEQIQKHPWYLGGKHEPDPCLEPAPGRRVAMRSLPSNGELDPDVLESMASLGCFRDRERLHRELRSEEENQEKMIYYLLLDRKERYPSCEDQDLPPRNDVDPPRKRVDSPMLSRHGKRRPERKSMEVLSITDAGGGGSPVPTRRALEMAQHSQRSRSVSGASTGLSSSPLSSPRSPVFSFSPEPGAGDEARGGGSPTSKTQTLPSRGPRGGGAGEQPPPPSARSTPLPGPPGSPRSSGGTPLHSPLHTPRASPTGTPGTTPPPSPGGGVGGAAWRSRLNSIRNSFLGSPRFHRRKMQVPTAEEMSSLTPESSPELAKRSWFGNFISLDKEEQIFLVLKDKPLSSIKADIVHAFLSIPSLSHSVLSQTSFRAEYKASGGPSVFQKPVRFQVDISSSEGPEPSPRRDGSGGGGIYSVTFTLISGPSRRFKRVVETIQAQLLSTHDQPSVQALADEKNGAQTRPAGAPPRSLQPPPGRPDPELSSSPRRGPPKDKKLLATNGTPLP

[2] = biological target: T2, PKD1 (Homo sapiens, UniProt Q15139)
T2 sequence (Q15139 1-912): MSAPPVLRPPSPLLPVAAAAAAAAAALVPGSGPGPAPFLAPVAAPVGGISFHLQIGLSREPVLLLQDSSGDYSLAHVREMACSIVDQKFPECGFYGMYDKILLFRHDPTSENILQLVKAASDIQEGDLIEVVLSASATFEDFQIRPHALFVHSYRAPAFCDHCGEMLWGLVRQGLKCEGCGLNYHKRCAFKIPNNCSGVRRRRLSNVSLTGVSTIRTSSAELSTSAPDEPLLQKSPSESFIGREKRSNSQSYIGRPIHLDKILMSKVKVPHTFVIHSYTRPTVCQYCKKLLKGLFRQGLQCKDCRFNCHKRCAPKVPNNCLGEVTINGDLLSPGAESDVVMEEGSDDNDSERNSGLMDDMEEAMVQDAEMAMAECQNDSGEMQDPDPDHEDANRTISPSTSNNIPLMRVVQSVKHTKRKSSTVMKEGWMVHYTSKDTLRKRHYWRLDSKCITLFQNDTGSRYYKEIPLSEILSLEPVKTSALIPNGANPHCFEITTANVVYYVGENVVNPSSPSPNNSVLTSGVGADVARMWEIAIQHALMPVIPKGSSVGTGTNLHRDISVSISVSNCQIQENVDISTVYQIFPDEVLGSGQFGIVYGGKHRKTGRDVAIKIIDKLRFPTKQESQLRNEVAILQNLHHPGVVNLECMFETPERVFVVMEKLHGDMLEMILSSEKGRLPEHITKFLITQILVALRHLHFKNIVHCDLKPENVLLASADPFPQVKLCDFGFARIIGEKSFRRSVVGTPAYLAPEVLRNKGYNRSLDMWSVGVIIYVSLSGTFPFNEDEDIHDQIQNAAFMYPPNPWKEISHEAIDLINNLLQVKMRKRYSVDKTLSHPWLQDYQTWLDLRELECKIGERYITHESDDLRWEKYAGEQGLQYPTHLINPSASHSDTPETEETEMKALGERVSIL

[3] = biological target: T3, PKCz (Homo sapiens, UniProt Q05513)
T3 sequence (Q05513 1-592): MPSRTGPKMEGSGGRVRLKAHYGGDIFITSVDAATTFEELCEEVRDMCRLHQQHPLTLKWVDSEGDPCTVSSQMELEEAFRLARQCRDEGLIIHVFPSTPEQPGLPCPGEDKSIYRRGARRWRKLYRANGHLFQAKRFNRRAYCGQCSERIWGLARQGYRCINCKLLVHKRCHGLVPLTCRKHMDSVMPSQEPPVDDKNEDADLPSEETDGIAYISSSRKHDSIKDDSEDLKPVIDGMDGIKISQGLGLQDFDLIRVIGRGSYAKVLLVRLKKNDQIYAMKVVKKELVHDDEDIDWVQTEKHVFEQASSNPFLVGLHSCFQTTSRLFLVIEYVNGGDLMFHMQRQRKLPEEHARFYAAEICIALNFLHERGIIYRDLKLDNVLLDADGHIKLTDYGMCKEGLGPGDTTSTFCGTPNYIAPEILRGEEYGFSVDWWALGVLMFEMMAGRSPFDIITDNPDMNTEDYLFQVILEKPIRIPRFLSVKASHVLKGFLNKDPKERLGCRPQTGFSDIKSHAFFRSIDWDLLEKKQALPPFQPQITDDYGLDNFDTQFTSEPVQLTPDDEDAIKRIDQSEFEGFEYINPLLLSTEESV

[4] = biological target: TESK1 (Homo sapiens, UniProt Q15569)
TESK1, sequence (Q15569 whole entry): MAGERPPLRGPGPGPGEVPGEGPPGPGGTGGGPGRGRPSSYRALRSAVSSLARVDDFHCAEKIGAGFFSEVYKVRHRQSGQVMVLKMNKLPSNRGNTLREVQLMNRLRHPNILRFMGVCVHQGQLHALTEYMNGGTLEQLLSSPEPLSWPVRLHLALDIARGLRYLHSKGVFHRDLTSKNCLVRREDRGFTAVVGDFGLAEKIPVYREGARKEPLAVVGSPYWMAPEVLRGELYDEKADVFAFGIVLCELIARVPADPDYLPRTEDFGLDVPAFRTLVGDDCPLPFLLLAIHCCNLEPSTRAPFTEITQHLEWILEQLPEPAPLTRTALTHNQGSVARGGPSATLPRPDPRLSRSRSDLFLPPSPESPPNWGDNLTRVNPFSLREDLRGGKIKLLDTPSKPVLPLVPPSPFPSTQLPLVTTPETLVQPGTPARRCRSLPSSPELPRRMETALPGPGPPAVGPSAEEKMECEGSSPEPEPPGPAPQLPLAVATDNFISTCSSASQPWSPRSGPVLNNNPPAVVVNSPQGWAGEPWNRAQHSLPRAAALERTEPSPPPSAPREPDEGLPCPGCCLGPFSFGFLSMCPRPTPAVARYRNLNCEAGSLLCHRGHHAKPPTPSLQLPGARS

[5] = biological target: Src (Homo sapiens, UniProt P12931)
Src, sequence (P12931 whole entry): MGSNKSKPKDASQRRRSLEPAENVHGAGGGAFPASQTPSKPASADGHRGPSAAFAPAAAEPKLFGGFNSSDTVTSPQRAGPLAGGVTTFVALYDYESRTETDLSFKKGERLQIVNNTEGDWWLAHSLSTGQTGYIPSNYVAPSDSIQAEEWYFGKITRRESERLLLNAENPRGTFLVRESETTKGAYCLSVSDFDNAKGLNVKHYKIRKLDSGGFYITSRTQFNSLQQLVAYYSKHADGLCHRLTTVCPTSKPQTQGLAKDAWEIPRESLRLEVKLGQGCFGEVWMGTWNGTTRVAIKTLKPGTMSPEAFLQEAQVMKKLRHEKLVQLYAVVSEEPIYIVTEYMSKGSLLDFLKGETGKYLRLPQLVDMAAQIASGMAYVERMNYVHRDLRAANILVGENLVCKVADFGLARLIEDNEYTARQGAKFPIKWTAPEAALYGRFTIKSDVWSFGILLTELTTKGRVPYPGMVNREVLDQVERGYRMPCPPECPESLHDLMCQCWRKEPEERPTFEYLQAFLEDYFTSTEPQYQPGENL

[6] = biological target: MINK1 (Homo sapiens, UniProt Q8N4C8)
MINK1, sequence (Q8N4C8 whole entry): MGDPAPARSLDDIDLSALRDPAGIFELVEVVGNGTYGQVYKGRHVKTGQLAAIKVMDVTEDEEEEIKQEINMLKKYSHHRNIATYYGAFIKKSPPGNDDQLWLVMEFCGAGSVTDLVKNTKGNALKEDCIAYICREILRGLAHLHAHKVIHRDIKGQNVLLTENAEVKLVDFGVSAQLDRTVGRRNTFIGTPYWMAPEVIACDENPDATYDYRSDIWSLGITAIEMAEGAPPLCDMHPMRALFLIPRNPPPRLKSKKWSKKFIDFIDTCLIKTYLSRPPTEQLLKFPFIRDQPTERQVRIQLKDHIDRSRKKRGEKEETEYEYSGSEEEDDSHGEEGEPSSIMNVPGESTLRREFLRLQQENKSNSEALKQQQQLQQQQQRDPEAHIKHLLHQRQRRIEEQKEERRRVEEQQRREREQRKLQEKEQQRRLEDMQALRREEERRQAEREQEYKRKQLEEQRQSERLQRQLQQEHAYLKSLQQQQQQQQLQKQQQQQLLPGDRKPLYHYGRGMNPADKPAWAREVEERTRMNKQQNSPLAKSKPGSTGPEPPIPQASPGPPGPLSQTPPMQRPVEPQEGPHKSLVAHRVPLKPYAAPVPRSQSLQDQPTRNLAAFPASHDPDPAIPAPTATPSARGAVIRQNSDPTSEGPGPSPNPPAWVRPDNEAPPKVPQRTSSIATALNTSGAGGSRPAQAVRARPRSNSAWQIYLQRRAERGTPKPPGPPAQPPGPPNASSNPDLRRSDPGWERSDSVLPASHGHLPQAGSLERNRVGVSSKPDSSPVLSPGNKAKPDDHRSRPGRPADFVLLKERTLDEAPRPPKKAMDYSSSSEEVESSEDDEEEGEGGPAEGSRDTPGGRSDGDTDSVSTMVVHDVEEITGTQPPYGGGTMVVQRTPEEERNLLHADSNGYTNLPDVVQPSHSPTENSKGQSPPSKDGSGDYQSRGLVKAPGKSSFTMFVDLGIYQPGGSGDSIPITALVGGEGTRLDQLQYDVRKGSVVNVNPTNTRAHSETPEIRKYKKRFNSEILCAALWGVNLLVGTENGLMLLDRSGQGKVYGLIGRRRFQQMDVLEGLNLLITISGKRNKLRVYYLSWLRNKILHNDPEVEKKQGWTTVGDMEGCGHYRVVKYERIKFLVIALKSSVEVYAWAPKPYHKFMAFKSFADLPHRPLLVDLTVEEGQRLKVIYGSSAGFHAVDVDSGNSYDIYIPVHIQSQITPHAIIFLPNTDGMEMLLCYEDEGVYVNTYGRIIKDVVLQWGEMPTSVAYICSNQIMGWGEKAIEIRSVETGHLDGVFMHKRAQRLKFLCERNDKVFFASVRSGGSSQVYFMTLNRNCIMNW

[7] = biological target: HIPK1 (Homo sapiens, UniProt Q86Z02)
HIPK1, sequence (Q86Z02 whole entry): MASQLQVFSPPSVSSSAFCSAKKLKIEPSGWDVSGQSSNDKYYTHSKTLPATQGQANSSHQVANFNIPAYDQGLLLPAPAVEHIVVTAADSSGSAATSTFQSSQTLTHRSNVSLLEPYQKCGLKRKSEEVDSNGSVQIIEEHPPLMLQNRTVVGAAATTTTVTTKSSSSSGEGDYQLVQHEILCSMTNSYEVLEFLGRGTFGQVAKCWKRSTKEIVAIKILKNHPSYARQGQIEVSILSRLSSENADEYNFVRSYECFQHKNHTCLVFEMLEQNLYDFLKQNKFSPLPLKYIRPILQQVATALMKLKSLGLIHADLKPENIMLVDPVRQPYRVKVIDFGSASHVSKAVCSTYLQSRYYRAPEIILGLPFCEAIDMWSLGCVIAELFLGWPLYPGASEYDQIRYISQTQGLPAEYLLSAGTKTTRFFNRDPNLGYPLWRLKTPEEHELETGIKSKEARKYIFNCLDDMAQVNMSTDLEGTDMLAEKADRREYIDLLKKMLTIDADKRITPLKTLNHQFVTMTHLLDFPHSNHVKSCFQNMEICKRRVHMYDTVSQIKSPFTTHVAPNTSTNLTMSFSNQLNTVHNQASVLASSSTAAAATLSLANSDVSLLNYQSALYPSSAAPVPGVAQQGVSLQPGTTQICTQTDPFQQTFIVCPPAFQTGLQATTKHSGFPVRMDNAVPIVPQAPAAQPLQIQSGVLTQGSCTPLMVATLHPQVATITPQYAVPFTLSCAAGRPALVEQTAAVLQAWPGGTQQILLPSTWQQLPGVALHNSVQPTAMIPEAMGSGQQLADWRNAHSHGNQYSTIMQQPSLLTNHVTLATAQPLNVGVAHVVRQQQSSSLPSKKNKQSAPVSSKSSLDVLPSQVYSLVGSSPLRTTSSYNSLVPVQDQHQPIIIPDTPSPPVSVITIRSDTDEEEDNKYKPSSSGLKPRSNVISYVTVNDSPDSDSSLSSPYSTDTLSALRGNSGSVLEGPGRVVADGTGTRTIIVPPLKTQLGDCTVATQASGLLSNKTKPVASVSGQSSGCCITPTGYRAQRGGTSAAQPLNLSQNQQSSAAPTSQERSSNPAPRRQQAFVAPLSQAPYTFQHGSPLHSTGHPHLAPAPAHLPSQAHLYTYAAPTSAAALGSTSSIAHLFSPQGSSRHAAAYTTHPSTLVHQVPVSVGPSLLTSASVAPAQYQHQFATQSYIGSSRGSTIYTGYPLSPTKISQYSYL

COc1ccc2sc(-c3cncc(N)c3)nc2c1 [compound 1, 5-(5-Methoxybenzo[d]thiazol-2-yl)pyridin-3-amine]
remaining activity at 1 µM ([1]; BRSK1, 1 μM): 115%
remaining activity at 100 µM ([1]; BRSK1, 100 μM): 37%
remaining activity at 1 µM ([2]; PKD1, 1 μM): 94%
remaining activity at 100 µM ([2]; PKD1, 100 μM): 23%
remaining activity at 1 µM ([3]; PKCz, 1 μM): 106%
remaining activity at 100 µM ([3]; PKCz, 100 μM): 128%
remaining activity at 1 µM ([4]; TESK1, 1 μM): 110%
remaining activity at 100 µM ([4]; TESK1, 100 μM): 28%
remaining activity at 1 µM ([5]; Src, 1 μM): 123%
remaining activity at 100 µM ([5]; Src, 100 μM): 42%
remaining activity at 1 µM ([6]; MINK1, 1 μM): 108%
remaining activity at 100 µM ([6]; MINK1, 100 μM): 36%
remaining activity at 1 µM ([7]; HIPK1, 1 μM): 116%
remaining activity at 100 µM ([7]; HIPK1, 100 μM): 36%

COc1ccc2sc(-c3cncc(NC(C)=O)c3)nc2c1 [PST-001, N-(5-(5-Methoxybenzo[d]thiazol-2-yl)pyridin-3-yl)acetamide]
remaining activity at 1 µM [1]: 114%
remaining activity at 100 µM [1]: 111%
remaining activity at 1 µM [2]: 103%
remaining activity at 100 µM [2]: 92%
remaining activity at 1 µM [3]: 119%
remaining activity at 100 µM [3]: 124%
remaining activity at 1 µM [4]: 105%
remaining activity at 100 µM [4]: 85%
remaining activity at 1 µM [5]: 100%
remaining activity at 100 µM [5]: 106%
remaining activity at 1 µM [6]: 104%
remaining activity at 100 µM [6]: 88%
remaining activity at 1 µM [7]: 113%
remaining activity at 100 µM [7]: 113%
